Assay results: ChEMBL document CHEMBL3045862, “PRE-CLINICAL AND CLINICAL PHARMACOKINETICS OF THE DIASTEREOMERS OF ARTEETHER, A POTENT ANTIMALARIAL” (Med Chem Res, 2004)

Key:
Rhesus monkey [1] = assay: AUC (0 to infinity) in Macaca mulatta (Rhesus monkey) at 4 mg/kg, iv; format: ADME, organism-based, Plasma; parameters: time infinity, dose 4 mg/kg, route intravenous; conditions: in vivo
[2] = Cmax in Macaca mulatta (Rhesus monkey) at 7.5 mg/kg, administered intramuscularly; format: ADME, organism-based; parameters: dose 7.5 mg/kg, route intramuscular; conditions: in vivo, im
Rattus norvegicus [3] = assay: AUC (0 to infinity) in Rattus norvegicus Sprague-Dawley (rat) at 2 mg/kg, iv; format: ADME, organism-based, Plasma; parameters: time infinity, dose 2 mg/kg, route intravenous; conditions: in vivo
Rattus norvegicus [4] = assay: Dose normalized AUC in Rattus norvegicus Sprague-Dawley (rat) at 9 mg/kg, po; format: ADME, organism-based; parameters: dose 9 mg/kg, route oral; conditions: in vivo
[5] = Mean residence time in Rattus norvegicus Sprague-Dawley (rat) at 17.5 mg/kg, administered intramuscularly; format: ADME, organism-based; parameters: dose 17.5 mg/kg, route intramuscular; conditions: in vivo, im
[6] = Tmax in Homo sapiens (human) at 150 mg; format: ADME, organism-based; conditions: in vivo
[7] = Cmax in Macaca mulatta (Rhesus monkey) at 50 mg/kg, po; format: ADME, organism-based; parameters: dose 50 mg/kg, route oral; conditions: in vivo
[8] = Tmax in Rattus norvegicus Sprague-Dawley (rat) at 9 mg/kg, administered intramuscularly; format: ADME, organism-based; parameters: dose 9 mg/kg, route intramuscular; conditions: in vivo, im
[9] = Tmax in Macaca mulatta (Rhesus monkey) at 7.5 mg/kg, administered intramuscularly; format: ADME, organism-based; parameters: dose 7.5 mg/kg, route intramuscular; conditions: in vivo, im
Rattus norvegicus [10] = assay: Dose normalized AUC in Rattus norvegicus Sprague-Dawley (rat) at 9 mg/kg, administered intramuscularly; format: ADME, organism-based; parameters: dose 9 mg/kg, route intramuscular; conditions: in vivo, im
[11] = Mean residence time in Rattus norvegicus Sprague-Dawley (rat) at 17.5 mg/kg, po; format: ADME, organism-based; parameters: dose 17.5 mg/kg, route oral; conditions: in vivo
[12] = Elimination half life in Rattus norvegicus Sprague-Dawley (rat) at 17.5 mg/kg, administered intramuscularly; format: ADME, organism-based; parameters: dose 17.5 mg/kg, route intramuscular; conditions: in vivo, im, read-out: beta t1/2 (converted)
[13] = AUC (0 to infinity) in Homo sapiens (human) at 150 mg; format: ADME, organism-based; parameters: dose 150 mg, time infinity; conditions: plasma
Rattus norvegicus [14] = assay: Dose normalized AUC in Rattus norvegicus Sprague-Dawley (rat) at 2 mg/kg, iv; format: ADME, organism-based; parameters: dose 2 mg/kg, route intravenous; conditions: in vivo
Rhesus monkey [15] = assay: Dose normalized AUC in Macaca mulatta (Rhesus monkey) at 7.5 mg/kg, administered intramuscularly; format: ADME, organism-based; parameters: dose 7.5 mg/kg, route intramuscular; conditions: in vivo, im
[16] = Tmax in Rattus norvegicus Sprague-Dawley (rat) at 30 mg/kg, administered intramuscularly; format: ADME, organism-based; parameters: dose 30 mg/kg, route intramuscular; conditions: in vivo, im
Rattus norvegicus [17] = assay: Clearance in Rattus norvegicus Sprague-Dawley (rat) at 30 mg/kg, administered intramuscularly; format: ADME, organism-based; parameters: dose 30 mg/kg, route intramuscular; conditions: in vivo, im
[18] = Elimination half life in Macaca mulatta (Rhesus monkey) at 7.5 mg/kg, administered intramuscularly; format: ADME, organism-based; parameters: dose 7.5 mg/kg, route intramuscular; conditions: in vivo, im, read-out: beta t1/2 (converted)
[19] = Cmax in Rattus norvegicus Sprague-Dawley (rat) at 9 mg/kg, po; format: ADME, organism-based; parameters: dose 9 mg/kg, route oral; conditions: in vivo
Rattus norvegicus [20] = assay: Clearance in Rattus norvegicus Sprague-Dawley (rat) at 2 mg/kg, iv; format: ADME, organism-based; parameters: dose 2 mg/kg, route intravenous; conditions: in vivo
[21] = Elimination half life in Macaca mulatta (Rhesus monkey) at 50 mg/kg, po; format: ADME, organism-based; parameters: dose 50 mg/kg, route oral; conditions: in vivo, read-out: beta t1/2 (converted)
Rhesus monkey [22] = assay: AUC (0 to infinity) in Macaca mulatta (Rhesus monkey) at 7.5 mg/kg, administered intramuscularly; format: ADME, organism-based, Plasma; parameters: time infinity, dose 7.5 mg/kg, route intramuscular; conditions: in vivo, im
Rattus norvegicus [23] = assay: Clearance in Rattus norvegicus Sprague-Dawley (rat) at 30 mg/kg, po; format: ADME, organism-based; parameters: dose 30 mg/kg, route oral; conditions: in vivo
Rhesus monkey [24] = assay: Volume of distribution in Macaca mulatta (Rhesus monkey) at 7.5 mg/kg, administered intramuscularly; format: ADME, organism-based; parameters: dose 7.5 mg/kg, route intramuscular; conditions: in vivo, im
Rattus norvegicus [25] = assay: Dose normalized AUC in Rattus norvegicus Sprague-Dawley (rat) at 30 mg/kg, administered intramuscularly; format: ADME, organism-based; parameters: dose 30 mg/kg, route intramuscular; conditions: in vivo, im
Rattus norvegicus [26] = assay: Volume of distribution in Rattus norvegicus Sprague-Dawley (rat) at 9 mg/kg, po; format: ADME, organism-based; parameters: dose 9 mg/kg, route oral; conditions: in vivo
[27] = Mean residence time in Macaca mulatta (Rhesus monkey) at 7.5 mg/kg, administered intramuscularly; format: ADME, organism-based; parameters: dose 7.5 mg/kg, route intramuscular; conditions: in vivo, im
[28] = Mean residence time in Rattus norvegicus Sprague-Dawley (rat) at 2 mg/kg, iv; format: ADME, organism-based; parameters: dose 2 mg/kg, route intravenous; conditions: in vivo
Homo sapiens = species: Homo sapiens; assay: Dose normalized AUC in Homo sapiens (human) at 150 mg; format: ADME, organism-based; conditions: in vivo
[29] = Mean residence time in Rattus norvegicus Sprague-Dawley (rat) at 9 mg/kg, administered intramuscularly; format: ADME, organism-based; parameters: dose 9 mg/kg, route intramuscular; conditions: in vivo, im
[30] = Mean residence time in Macaca mulatta (Rhesus monkey) at 50 mg/kg, po; format: ADME, organism-based; parameters: dose 50 mg/kg, route oral; conditions: in vivo
Rhesus monkey [31] = assay: Dose normalized AUC in Macaca mulatta (Rhesus monkey) at 50 mg/kg, po; format: ADME, organism-based; parameters: dose 50 mg/kg, route oral; conditions: in vivo
[32] = Elimination half life in Rattus norvegicus Sprague-Dawley (rat) at 9 mg/kg, po; format: ADME, organism-based; parameters: dose 9 mg/kg, route oral; conditions: in vivo, read-out: beta t1/2 (converted)
Rhesus monkey [33] = assay: AUC (0 to infinity) in Macaca mulatta (Rhesus monkey) at 50 mg/kg, po; format: ADME, organism-based, Plasma; parameters: time infinity, dose 50 mg/kg, route oral; conditions: in vivo
Rattus norvegicus [34] = assay: AUC (0 to infinity) in Rattus norvegicus Sprague-Dawley (rat) at 30 mg/kg, po; format: ADME, organism-based, Plasma; parameters: time infinity, dose 30 mg/kg, route oral; conditions: in vivo
Rhesus monkey [35] = assay: Volume of distribution in Macaca mulatta (Rhesus monkey) at 50 mg/kg, po; format: ADME, organism-based; parameters: dose 50 mg/kg, route oral; conditions: in vivo
[36] = Mean residence time in Homo sapiens (human) at 150 mg; format: ADME, organism-based; conditions: in vivo
[37] = Clearance in Homo sapiens (human) at 150 mg; format: ADME, organism-based; conditions: in vivo
[38] = Elimination half life in Rattus norvegicus Sprague-Dawley (rat) at 30 mg/kg, po; format: ADME, organism-based; parameters: dose 30 mg/kg, route oral; conditions: in vivo, read-out: beta t1/2 (converted)
[39] = Elimination half life in Homo sapiens (human) at 150 mg; format: ADME, organism-based; conditions: in vivo, read-out: beta t1/2 (converted)
[40] = Tmax in Rattus norvegicus Sprague-Dawley (rat) at 17.5 mg/kg, po; format: ADME, organism-based; parameters: dose 17.5 mg/kg, route oral; conditions: in vivo

Work on CCO[C@@H]1O[C@@H]2O[C@]3(C)CC[C@H]4[C@H](C)CC[C@@H]([C@H]1C)[C@@]24OO3 [ALPHA-ARTEETHER] yielded an AUC (Rhesus monkey [1]) of 754.4 ng·h/mL, a Cmax [2] of 96.7 ng/mL and an AUC (Rattus norvegicus [3]) of 131.7 ng·h/mL. It also gave an AUC/dose (Rattus norvegicus [4]) of 27.3 ng·h/mL, an MRT [5] of 23.5 h and a Tmax [6] of 4.8 min. For the same compound, the Cmax [7] was 3.9 ng/mL, the Tmax [8] was 30 min and the Tmax [9] was 1 h. The AUC/dose (Rattus norvegicus [10]) was 392 ng·h/mL, the MRT [11] was 1.9 h and the half-life [12] was 1300 min. For the same compound, the AUC(0-inf) [13] was 1300 ng·h/mL, the AUC/dose (Rattus norvegicus [14]) was 219.5 ng·h/mL and the AUC/dose (Rhesus monkey [15]) was 285.3 ng·h/mL. It also gave a Tmax [16] of 10 min, a CL (Rattus norvegicus [17]) of 14.8 L/h/kg and a half-life [18] of 402 min. It also gave a Cmax [19] of 33.4 ng/mL, a CL (Rattus norvegicus [20]) of 4.5 L/h/kg and a half-life [21] of 162 min. It also gave an AUC (Rhesus monkey [22]) of 641.8 ng·h/mL, a CL (Rattus norvegicus [23]) of 79.9 L/h/kg and a Vd (Rhesus monkey [24]) of 36.8 L/kg. The AUC/dose (Rattus norvegicus [25]) was 66.8 ng·h/mL, the Vd (Rattus norvegicus [26]) was 122.2 L/kg and the MRT [27] was 9.2 h. For the same compound, the MRT [28] was 36 min, the AUC/dose (Homo sapiens) was 1721.9 ng·h/mL and the MRT [29] was 47.8 h. For the same compound, the MRT [30] was 3.4 h, the AUC/dose (Rhesus monkey [31]) was 0.4 ng·h/mL and the half-life [32] was 144 min. It also gave an AUC (Rhesus monkey [33]) of 6.6 ng·h/mL, an AUC (Rattus norvegicus [34]) of 111.5 ng·h/mL and a Vd (Rhesus monkey [35]) of 7148.8 L/kg. The MRT [36] was 19.6 h, the clearance [37] was 10 mL/min/kg and the half-life [38] was 90 min. For the same compound, the half-life [39] was 792 min and the Tmax [40] was 5 min.
